According to patent publication US8357379B2, “High concentration baclofen preparations” (Board of Regents, The University of Texas System, priority 2004, dated 2013):
In brackets after ≈: the same amount, converted by molar mass. Marks after values point to notes of the source that are not given here.

Key:
[1] = Physical stability evaluation (visual inspection, Tyndall beam, turbidity, particle counting) of stored baclofen solutions; assay type: physicochemical; conditions: for time remained clear and free of unacceptable microparticulates: room temperature or 37° C.
Experimental: Methods of Sample Preparation. All manipulations are conducted in a Class 100 environment in a biological safety cabinet. Each test solution is prepared as a pooled sample and then subdivided by (1) drawing 20 mL of the solution into 30-mL Becton-Dickinson syringes having Braun Luer lock “Red Cap” syringe tip seals and (2) sealing the Luer tip with a Red Cap Luer tip seal and (3) filling 20 mL of the test solution into 30-mL sterile empty glass vials. Separate sample syringes and sample vials are prepared for each drug concentration at each storage temperature. Separate syringes and vials are prepared for analysis of the drug content. Further syringes and vials are used to evaluate the physical stability of the solutions.
Methods of Sampling and Analysis. Each pooled solution is analyzed and evaluated immediately after preparation. This serves as the initial time point evaluation for the test solution. The solution is then packaged into the syringes and vials as noted under Sample Preparation.
The test solutions in vials and syringes are thoroughly mixed prior to sampling. A 1-mL sample of each test solution from three test syringes and three test vials is collected and chemically analyzed. The sample aliquots are removed from each container after 1, 3, 7, 14, 21, 30 and 60 days of storage at 4° C., 23° C., and 37° C. Triplicate HPLC determinations are performed at each time point if needed to determine the maximum stability of baclofen. The contents of the remaining containers are visually inspected at each assay time point and 6-mL samples are collected and fully evaluated for physical stability as indicated under Physical Stability Evaluation above after 1, 3, 7, 14, 21, 30 and 60 days.
After complete dissolution of the samples had occurred, the solutions were allowed to cool to room temperature and several separate aliquots of each sample were filtered through 0.22-micron sterilizing filters into sterile empty vials. Vials containing samples of each solution were stored under one of three test conditions: vials were stored at room temperature or under refrigeration (to simulate normal storage conditions), or at 37° C. (to simulate “in use” conditions in an implanted pump).
Physical Stability Evaluation. The samples are also evaluated for changes in turbidity and particulate formation. In addition to visual inspection in normal diffuse fluorescent room light and using a high-intensity monodirectional light source (Tyndall beam) against a dark background, turbidity is measured using a Hach Company model 2100AN color-correcting turbidimeter, and particle sizing/counting is performed using a light-obscuration particle sizer and counter (HIAC-Royco Model 9703 particle sizer/counter).

[2] = Stability-indicating HPLC analysis of baclofen concentration / chemical stability; assay type: physicochemical; conditions: for Chemical Stability (% Remaining): room temperature
Experimental: The test solutions in vials and syringes are thoroughly mixed prior to sampling. A 1-mL sample of each test solution from three test syringes and three test vials is collected and chemically analyzed. […] Triplicate HPLC determinations are performed at each time point if needed to determine the maximum stability of baclofen. The contents of the remaining containers are visually inspected at each assay time point and 6-mL samples are collected and fully evaluated for physical stability as indicated under Physical Stability Evaluation above after 1, 3, 7, 14, 21, 30 and 60 days.
HPLC Analysis to Confirm Baclofen Concentration. A stability-indicating HPLC analytical method adapted from published methods was used to determine the concentration of the baclofen samples evaluated in this testing (Sitaram et al., 1997; Gupta et al., 1998; Johnson C E, et al., 1993; Allen L V, et al., 1996. This method was used to document that at the higher concentrations the entire amount of baclofen had dissolved, and the solutions were near the target concentrations. All tested sample solutions were filtered through 0.22-micron filters to remove remaining undissolved drug, if any, prior to analysis. The HPLC analytical method used is cited in Tables 1 and 2. […] Initial baclofen concentrations for the nominally 4, 5, 6, and 8 mg/mL test solutions were within 93 to 104% of the target concentrations.
The liquid chromatograph is a Waters LC Module-1 Plus having a multisolvent pump, variable wavelength UV detector, and autosampler in one unit. The system is also controlled and integrated by a personal computer running chromatography management software.

[3] = Practical solubility by direct dissolution in normal saline, HPLC after 0.22-micron filtration; assay type: physicochemical; conditions: about 23° C.
Experimental: The inventors attempted to prepare aqueous baclofen solutions at concentrations of 3 mg/mL, 4 mg/mL, and 5 mg/mL by direct dissolution in 0.9% sodium chloride injection, USP (normal saline). The normal saline was commercially procured by the inventors and was at ambient room temperature (about 23° C.) for use in the testing. Appropriate amounts of authentic baclofen powder were weighed and added to the normal saline and shaken to aid in dissolution. […] Both the 4-mg/mL and especially the 5-mg/mL concentration retained large amounts of undissolved powder. […] The solutions were visibly unacceptable for use as an injection. […] The inventors believe that this the concentration represents the “practical solubility” of baclofen.
As used herein, the “practical solubility” is the concentration of baclofen that can be dissolved using simple practical dissolution steps such as adding the powder to an aqueous solvent and then shaking or stirring the solvent by hand or with a mechanical device. When attempting to prepare solutions having concentrations higher than the practical solubility concentration, it is common to observe residual undissolved matter, precipitation of microparticulates, or both.

[4] = aqueous solution, room temperature, neutral pH (pH 6 to 7); calculated (Ahuja, 1985); cited from earlier work
[5] = cited from earlier work
[6] = Physical stability evaluation (visual inspection, Tyndall beam, turbidity, particle counting) of stored baclofen solutions; assay type: physicochemical; conditions: for Physical Stability (yes/no) / visual inspection at approximately 16 months: heat and sonication; for physical stability at twelve months: 12 months

Compound: NCC(CC(=O)O)c1ccc(Cl)cc1 (centres unmarked) [Baclofen, 4-amino-3-(p-chlorophenyl) butyric acid]
- time stayed in solution, clear and free of visible particulates and unacceptable microparticulates ([1]; 4 mg/mL, Examples 1 and 2, 37° C. (maximum duration tested)): at least one
- time remained clear and free of unacceptable microparticulates ([1]; 4 mg/mL, prepared by pH adjustment (Examples 3 and 4)): at least 60 days
- time remained clear and free of unacceptable microparticulates ([1]; 5 mg/mL, all four methods (Examples 1-4)): at least 60 days
- time after which a precipitate developed ([1]; 6 mg/mL, refrigeration): 7 days
- time remained in solution clear and free of unacceptable microparticulates ([1]; 8 mg/mL, acidification and back titration to pH 5 (Example 3), room temperature): at least 30 days
- time remains in solution clear and free of unacceptable microparticulates ([1]; 8 mg/mL, alkalinization and back titration (Example 4), room temperature): at least 30 days
- Chemical Stability (% Remaining) ([2]; 3 mg/ml, 24 months, calculated based on concentrations measured at six months): 101.7 ± 1.0^a % Remaining
- Chemical Stability (% Remaining) ([2]; 3.5 mg/ml, 24 months, calculated based on concentrations measured at six months): 100.0 ± 0.4^a % Remaining
- loss of drug during storage ([2]; 4 mg/mL, Examples 1 and 2, at least one year at 23° C.): no loss of drug
- Chemical Stability (% Remaining) ([2]; 4 mg/ml, 12 months): 99.9 ± 0.5 % Remaining
- Chemical Stability (% Remaining) ([2]; 4 mg/ml, 24 months, calculated based on concentrations measured at six months): 99.5 ± 1.2^a % Remaining
- Chemical Stability (% Remaining) ([2]; 5 mg/ml, 12 months): 100.6 ± 0.5 % Remaining
- Chemical Stability (% Remaining) ([2]; 6 mg/ml, 12 months): 102.9 ± 1.0 % Remaining
- initial baclofen concentration relative to target concentration ([2]; nominally 4, 5, 6, and 8 mg/mL test solutions, filtered 0.22-micron, HPLC): 93 to 104%
- solubility at 1 week ([3]; 0.9% sodium chloride injection, USP (normal saline), saline or isotonic, thermodynamic from solid, normal saline, putative 4 mg/mL and 5 mg/mL samples, shaking one week, filtered 0.22-micron, HPLC, read-out: amount of baclofen actually dissolved (practical solubility)): 3300 to 3500 µg/mL (≈ 15.4 to 16.4 mM)
- complete dissolution by direct dissolution ([3]; 4-mg/mL and 5-mg/mL in normal saline, vigorous shaking 60 minutes, then automated shaking for one week): failed to result in complete dissolution
- time before there is 10% decomposition of the dissolved baclofen [4]: 10 years
- concentration obtained by dissolving in acid ([5]; aqueous 0.1N HCl (Ahuja 1985)): greater than 20 mg/ml
- concentration obtained by dissolving in base ([5]; aqueous 0.1N NaOH (Ahuja 1985)): greater than 20 mg/ml
- solubility in chloroform ([5]; chloroform): insoluble
- solubility in methanol ([5]; methanol): very slightly soluble
- upper limit on room temperature aqueous solubility ([5]; room temperature, equilibrium reached over weeks or months (Ahuja, 1985)): 4300 µg/mL
- solubility in water ([5]; water): slightly soluble
- Physical Stability (yes/no) ([6]; 3 mg/ml, room temperature, test period 24 months): yes
- Physical Stability (yes/no) ([6]; 3.5 mg/ml, room temperature, test period 24 months): yes
- time remained in solution ([6]; 4 mg/mL, Examples 1 and 2, refrigerated at 4° C. (maximum duration tested)): at least 60 days
- time remained in solution, clear and free of visible particulates and microparticulate precipitation ([6]; 4 mg/mL, Examples 1 and 2, room temperature of 23° C.): at least one
- time stayed in solution, clear and free of visible particulates and unacceptable microparticulates ([6]; 4 mg/mL, heat and sonication (Example 1) or heat and high speed stirring (Example 2), room temperature): over 12 months
- Physical Stability (yes/no) ([6]; 4 mg/ml, room temperature, test period 12 months): yes
- Physical Stability (yes/no) ([6]; 4 mg/ml, room temperature, test period 24 months): yes
- time after which a precipitate developed ([6]; 5 mg/mL, refrigeration): 14 days
- Physical Stability (yes/no) ([6]; 5 mg/ml, room temperature, test period 12 months): yes
- time remained clear and free of unacceptable microparticulates ([6]; 6 mg/mL, all four methods (Examples 1-4), room temperature or 37° C.): at least 60 days
- physical stability at twelve months ([6]; 6.0 mg/mL, heat and sonication (Example 1), room temperature): no visible particulates to the unaided eye, but did contain trace amounts of solid material
- visual inspection at approximately 16 months ([6]; 6.0 mg/mL, room temperature): no change in its condition
- Physical Stability (yes/no) ([6]; 6 mg/ml, room temperature, test period 12 months, no visible particulates to the unaided eye, trace microparticulates in a few vials): yes^b
- time remained in solution ([6]; 8.0 mg/mL, heat and sonication (Example 1), room temperature): at least 30 days
- time remained clear and free of unacceptable microparticulates before trace particulate precipitation ([6]; 8 mg/mL, heating and agitation (Examples 1 and 2), room temperature or 37° C.): 14 days
- physical stability at 24 months ([6]; 3.0, 3.5 and 4.0 mg/mL, heat and sonication (Example 1), room temperature, 24 months, four methods of Example 11): physically stable by all four methods
- physical stability at twelve months ([6]; 4.0 and 5.0 mg/mL, heat and sonication (Example 1), room temperature): remained clear and no particulates were detected
- visual inspection at approximately 16 months ([6]; 4.0 and 5.0 mg/mL, room temperature): no change in the solutions
